Read-outs that look alike come from different tables or passages of the source.

The experiment has as its target BTK (Homo sapiens, UniProt Q06187). As to the kind of experiment: biochemical.
Where [1] appears, read: read-out: BTK inhibition (%), 0.75 uM BTK, […] probe 3l, 15 min preincubation.

Chain of BTK (Q06187 402-655 limits assumed): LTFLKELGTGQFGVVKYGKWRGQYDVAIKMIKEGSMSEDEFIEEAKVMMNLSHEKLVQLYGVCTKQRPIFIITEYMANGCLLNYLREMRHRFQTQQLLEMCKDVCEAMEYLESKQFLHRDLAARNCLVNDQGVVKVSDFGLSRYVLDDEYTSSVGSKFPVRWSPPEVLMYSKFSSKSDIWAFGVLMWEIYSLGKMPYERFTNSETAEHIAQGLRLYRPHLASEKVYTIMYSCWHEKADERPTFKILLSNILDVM

As usually defined, the inhibition is the drop in the measured response relative to a control, in per cent. `Cc1cc(-c2cc(C)c(NCCCS(=O)(=O)O)c(C)c2)cc(C)c1N` [PCM-0216076]: the inhibition at 10 µM under setting [1] was found to be 7.7%.

As to `COc1ccc(C(=O)C(=O)c2ccc(OC)cc2)cc1` [PCM-0216078], the inhibition at 10 µM under setting [1] stood at 24.7%.

`O=c1oc2cc(O)ccc2c2ccc(O)cc12` [PCM-0216079]: the inhibition at 10 µM under setting [1] amounted to 32.4%.

Consider `O=C1C(=Cc2cccnc2)C(=O)c2ccccc21` [PCM-0216080], for which the inhibition at 10 µM under setting [1] worked out at 20.8%.

`COc1c(-c2ccc3cc(NS(C)(=O)=O)ccc3c2)cc(-n2ccc(=O)[nH]c2=O)cc1C(C)(C)C` [PCM-0216081]: the inhibition at 10 µM under setting [1] came to 73.4%.

With `Nc1cc(N)c(N)cc1N` [PCM-0216082], the inhibition at 10 µM under setting [1] amounted to 31.7%.

Take `CO/N=C(\C(=O)N[C@@H]1C(=O)N2C(C(=O)[O-])=C(C[n+]3cccc4c3CCCC4)CS[C@H]12)c1csc(N)n1` [PCM-0216083]: under setting [1], the inhibition at 10 µM is 9.3%.

As for `C/C(=C(\CCOC(=O)c1ccccc1)SC(=O)c1ccccc1)N(C=O)Cc1cnc(C)nc1N` [PCM-0216084], the inhibition at 10 µM under setting [1] worked out at 4.6%.

Turning to `O=C(c1cccc(Br)c1)N1CCC(N2CCCC2)CC1` [PCM-0216085], under setting [1], the inhibition at 10 µM is -17.8%.

In the case of `CC[C@H]1OC(=O)[C@@](C)(F)C(=O)[C@H](C)[C@@H](O[C@@H]2O[C@H](C)C[C@H](N(C)C)[C@H]2O)[C@](C)(OC)C[C@@H](C)C(=O)[C@H](C)[C@H]2N(CCCCn3cc(-c4cccc(N)c4)nn3)C(=O)O[C@]12C` [PCM-0216086], the inhibition at 10 µM under setting [1] is -22.1%.

On to `O=C1C(=Cc2ccncc2)CCCC1=Cc1ccncc1` [PCM-0216087], for which the inhibition at 10 µM under setting [1] is -4.1%.

As for `CCCCCCOc1cc(C)c(O)c(C)c1C` [PCM-0216088], the inhibition at 10 µM under setting [1] is -25.5%.

`COc1ccc(-c2cc(=O)c3c(O)cc(O)cc3o2)cc1` [PCM-0216090]: under setting [1], the inhibition at 10 µM turned out to be 16.6%.

In the case of `CC(C)n1c(=O)n(C)c2cnc3cc(F)c(-c4ccc(OCCCN5CCCCC5)nc4)cc3c21` [PCM-0216091], the inhibition at 10 µM under setting [1] is -13.9%.

For the compound `C[C@H](N=C(NC#N)Nc1cccc2ncccc12)c1ccccc1` [PCM-0216092], the inhibition at 10 µM under setting [1] was -13.1%.

On to `CCCCOC(=O)c1ccccc1Nc1cccc(C(F)(F)F)c1` [PCM-0216094], for which the inhibition at 10 µM under setting [1] was found to be 21.4%.

Turning to `CC1(C)C(=O)N(c2ccc(C#N)c(C(F)(F)F)c2)C(=O)N1CCCCO` [PCM-0216095], under “read-out: BTK inhibition (%)”, the inhibition at 10 µM came out at 11.6%.

Consider `Cc1cc(NS(=O)(=O)c2ccc(N)cc2)nc(C)n1` [PCM-0216097], for which the inhibition at 10 µM under setting [1] came out at 11%.

`O=C1C(N(CO)C(=O)NCO)N(CO)C(=O)N1CO` (centres unmarked) [PCM-0216098]: the inhibition at 10 µM under setting [1] is -5.4%.

For the compound `CC1(C)S[C@@H]2[C@H](NC(=O)C(c3ccccc3)S(=O)(=O)O)C(=O)N2[C@H]1C(=O)O` (some centres unmarked) [PCM-0216099], the inhibition at 10 µM under setting [1] was 7.7%.

For the compound `O=C1C[C@@H]2[C@@H](CO)[C@H](O)C[C@@H]2O1` [PCM-0216100], the inhibition at 10 µM under setting [1] was -8.5%.

With `O=C(CO)[C@@H](O)[C@H](O)[C@@H](O)CO` [PCM-0216101], the inhibition at 10 µM under setting [1] was -4.3%.

Regarding `CCCCCC1=C(C)CCC1=O` [PCM-0216102], the inhibition at 10 µM under setting [1] was -16.2%.

Take `COc1cc(C(=O)O)ccc1O` [PCM-0216103]: the inhibition at 10 µM under setting [1] is 3.1%.

With `CC(=O)CCc1ccc(OC(C)=O)cc1` [PCM-0216104], the inhibition at 10 µM under setting [1] was -10.8%.

In the case of `O=C(O)c1cn(C2CC2)c2cc(Cl)c(F)cc2c1=O` [PCM-0216105], under setting [1], the inhibition at 10 µM worked out at 7.7%.

On to `CCCCCCC(O)C(=O)O` (centres unmarked) [PCM-0216106], for which the inhibition at 10 µM under setting [1] was -10%.

On to `C[Si](C)(C)N=C(O[Si](C)(C)C)C(F)(F)F` [PCM-0216107], for which the inhibition at 10 µM under setting [1] was -6.9%.

Consider `Fc1ccc(Cn2c(Cl)nc3ccccc32)cc1` [PCM-0216108], for which, under setting [1], the inhibition at 10 µM is -52.5%.

For `COc1cccc(C(N)=O)c1` [PCM-0216109], the inhibition at 10 µM under setting [1] was determined as 2.3%.

As for `Nc1ccc(O)cc1` [PCM-0216110], the inhibition at 10 µM under setting [1] stood at 82.6%.

For the compound `O=C1CCN(c2ccccc2)N1` [PCM-0216111], under setting [1], the inhibition at 10 µM was -12.4%.

In the case of `CC(C)(C)C(=O)N1N=CC[C@H]1c1ccccc1` [PCM-0216112], under setting [1], the inhibition at 10 µM came to 13.8%.

Regarding `O=C(O)CC(C(=O)O)n1c(O)c(C2=c3cc(Br)ccc3=NC2=O)sc1=S` (centres unmarked) [PCM-0216114], the inhibition at 10 µM under setting [1] is 3.1%.

As for `COc1cc2c(Oc3ccc4[nH]c(C)cc4c3F)ccnc2cc1OCC1(N)CC1` [PCM-0216115], the inhibition at 10 µM under setting [1] is 39.4%.

With `Cn1cc(-c2cc(Oc3cc(F)c(NC(=O)C4(C(=O)Nc5ccccc5)CC4)cc3F)ccn2)cn1` [PCM-0216116], the inhibition at 10 µM under setting [1] was 88.8%.

`COCCNc1cc(NC(=O)N2CCCc3cc(CN4CCN(C)CC4=O)c(C=O)nc32)ncc1C#N` [PCM-0216117]: the inhibition at 10 µM under setting [1] was -16.2%.

Turning to `COC(=O)CC1CC(c2ccc(O)cc2)=NO1` (centres unmarked) [PCM-0216118], the inhibition at 10 µM under setting [1] is -16.6%.

Regarding `O=Cc1ccc(CO)o1` [PCM-0216119], under setting [1], the inhibition at 10 µM is -2.3%.

As for `C/C=C1\C(=O)C[C@H]2[C@@H]3CCC4=CC(=O)CC[C@]4(C)[C@H]3CC[C@]12C` [PCM-0216120], the inhibition at 10 µM under setting [1] is -1.6%.

As to `C=C1C[C@@]23CC[C@H]4[C@@](C)(CCC[C@@]4(C)C(=O)O[C@@H]4O[C@H](CO)[C@@H](O)[C@H](O)[C@H]4O)[C@@H]2CC[C@]1(O[C@@H]1O[C@H](CO)[C@@H](O)[C@H](O)[C@H]1O[C@@H]1O[C@H](CO)[C@@H](O)[C@H](O)[C@H]1O)C3` [PCM-0216121], under setting [1], the inhibition at 10 µM is -27.8%.

In the case of `Cc1onc(-c2c(F)cccc2Cl)c1C(=O)N[C@@H]1C(=O)N2[C@@H]1SC(C)(C)[C@@H]2C(=O)O` [PCM-0216122], the inhibition at 10 µM under setting [1] is -1.6%.

As for `CC(C)c1cc2c(cc1S(=O)(=O)O)[C@@]1(C)CCC[C@@](C)(C(=O)O)[C@@H]1CC2` [PCM-0216123], under setting [1], the inhibition at 10 µM came to 3.9%.

As to `CO/N=C(\C(=O)N[C@@H]1C(=O)N2C(C(=O)OCOC(=O)C(C)(C)C)=C(C)CS[C@H]12)c1csc(N)n1` [PCM-0216124], the inhibition at 10 µM under setting [1] is -4.7%.

Turning to `N#Cc1c(N)nc(NC2CC2)nc1N` [PCM-0216125], the inhibition at 10 µM under setting [1] was found to be 14%.

With `COc1ccc2c(c1OC)CN1CCc3cc4c(cc3C1C2)OCO4` (centres unmarked) [PCM-0216126], under setting [1], the inhibition at 10 µM came out at 13.1%.

With `Cc1cc(S(=O)(=O)O)c2c(C)ccc(C(C)C)cc1-2` [PCM-0216127], the inhibition at 10 µM under setting [1] was 37.2%.

For `O=C1CCCC(=O)C1C(=O)c1ccc(C(F)(F)F)cc1[N+](=O)[O-]` [PCM-0216128], the inhibition at 10 µM under setting [1] was -10%.

In the case of `Cn1c(O)c(C2=c3ccccc3=NC2=O)c2ccccc21` [PCM-0216129], under setting [1], the inhibition at 10 µM is -17%.

For the compound `COc1cc2ncnc(Nc3ccc(F)c(Cl)c3)c2cc1O` [PCM-0216130], the inhibition at 10 µM under setting [1] amounted to 5.4%.

Regarding `O=C(CCCCc1ccc2c(c1)OCO2)N1CCCCC1` [PCM-0216131], under setting [1], the inhibition at 10 µM is -17.8%.

In the case of `COc1ccc(C=O)c(O)c1` [PCM-0216133], the inhibition at 10 µM under setting [1] was 5.4%.

For `O=c1cc(-c2ccccc2)oc2c1ccc1ccccc12` [PCM-0216134], the inhibition at 10 µM under setting [1] was -0.8%.

Consider `CC1=C[C@H]2[C@@H](CC1)[C@H](C)CC[C@H]2[C@@H](C)C(=O)O` [PCM-0216135], for which the inhibition at 10 µM under setting [1] was -3.1%.

`CC(COc1ccccc1Cc1ccccc1)N1CCCCC1` (centres unmarked) [PCM-0216136]: the inhibition at 10 µM under setting [1] is -17%.

Take `CN(CCN1CCC(OC(=O)Nc2ccccc2-c2ccccc2)CC1)C(=O)c1ccc(CN2CCC(C(N)=O)CC2)cc1` [PCM-0216137]: the inhibition at 10 µM under setting [1] is -10%.

(Values after PMC8041284, “Tunable Methacrylamides for Covalent Ligand Directed Release Chemistry” (Journal of the American Chemical Society, 2021).)
